Non-standard residues stand in square brackets, D forms with d. Residues, ends and D or L forms follow the SMILES beside them. *: point of attachment. Tyr(Nα-amidino) = N=C(N)N[C@@H](Cc1ccc(O)cc1)C(=O)*; dNle = CCCC[C@@H](N)C(=O)O
Legend:
Assay type in all cases: cell-based
guinea-pig ileum (GPI) [1] = assay: GPI assay according to Kosterlitz and Watt (opiate activity); details: guinea-pig ileum preparation; assay of Kosterlitz and Watt 1968; relative to normorphine = 1.0
Excerpt: (§1) 39, 398 (1970)] and in mouse ves deferens (MVD) preparations [J. Hughes et al.: Br. J. Pharmacol. 53, 371 (1975)]. […] The figures represent the activities of compounds relative to […] (the activity of normorphine is taken as unity=1.0).
^a GPI assay according to Kosterlitz and Watt [Br.J. Pharmacol. 33,

mouse vas deferens (MVD) = assay: MVD assay according to Hughes et al. (opiate activity); details: mouse vas deferens preparation; assay of Hughes et al. 1975; relative to normorphine = 1.0
Excerpt: as §1
^c MVD assay according to Hughes et al. [Br. J. Pharmacol. 53, 371

guinea-pig ileum (GPI) [2] = assay: GPI assay according to Kosterlitz et al. (opiate activity); details: guinea-pig ileum preparation; assay of Kosterlitz et al. 1970; relative to normorphine = 1.0
Excerpt: as §1
^b GPI assay according to Kosterlitz et al. [Br. J. Pharmacol. 39, 39

SMILES | Opiate activity GPI^a (opiate activity of normorphine = 1.0) (guinea-pig ileum (GPI) [1]) | Opiate activity MVD^c (opiate activity of normorphine = 1.0) (mouse vas deferens (MVD)) | Opiate activity GPI^b (opiate activity of normorphine = 1.0) (guinea-pig ileum (GPI) [2])
CC(=O)O.CCCC[C@@H](NC(=O)[C@@H](N)Cc1ccc(O)cc1)C(=O)NCC(=O)N[C@@H](Cc1ccccc1)C(N)=O.O [H-Tyr-D-Nle-Gly-Phe-NH2, L-Tyrosyl-D-norleucyl-glycyl-L-phenylalanine amide acetate hydrate] (H-Y[dNle]GF-NH2) | 22 | 8 | 22
CC(=O)O.CSCC[C@@H](NC(=O)[C@@H](N)Cc1ccc(O)cc1)C(=O)NCC(=O)N[C@@H](Cc1ccccc1)C(=O)N1CCC[C@H]1C(N)=O.O.O.O [H-Tyr-D-Met-Gly-Phe-Pro-NH2, L-tyrosyl-D-methionyl-glycyl-L-phenylalanyl-proline amide acetate trihydrate] (H-Y[dM]GFP-NH2) | 8 | 8 | 8
CC(=O)O.CSCC[C@@H](NC(=O)[C@@H](N)Cc1ccc(O)cc1)C(=O)NCC(=O)N[C@@H](Cc1ccccc1)C(N)=O.O [H-Tyr-D-Met-Gly-Phe-NH2, L-Tyrosyl-D-methionyl-glycyl-L-phenylalanine amide acetate hydrate] (H-Y[dM]GF-NH2) | 17 | 4 | 17
CSCC[C@@H](NC(=O)[C@H](Cc1ccc(O)cc1)NC(=N)N)C(=O)NCC(=O)N[C@@H](Cc1ccccc1)C(=O)N1CCC[C@H]1C(N)=O [H2 N-C-(NH)-Tyr-D-Met-Gly-Phe-Pro-NH2, amidino-L-tyrosyl-D-methionyl-glycyl-L-phenylalanyl-L-proline amide] ({Tyr(Nα-amidino)}-[dM]GFP-NH2) | 825 | 25 | 173
CSCC[C@@H](NC(=O)[C@H](Cc1ccc(O)cc1)NC(=N)N)C(=O)NCC(=O)N[C@@H](Cc1ccccc1)C(N)=O [H2 N-C-(NH)-Tyr-D-Met-Gly-Phe-NH2, amidino-L-tyrosyl-D-methionyl-glycyl-L-phenylalanine amide] | 211 | 21 | 79
CCCC[C@@H](NC(=O)[C@H](Cc1ccc(O)cc1)NC(=N)N)C(=O)NCC(=O)N[C@@H](Cc1ccccc1)C(N)=O [H2 N-C-(NH)-Tyr-D-Nle-Gly-Phe-NH2, amidino-L-tyrosyl-D-norleucyl-glycyl-L-phenylalanine amide] | 126 | 18 | 79
CC(=O)O.CCCC[C@@H](NC(=O)[C@@H](N)Cc1ccc(O)cc1)C(=O)NCC(=O)N[C@@H](Cc1ccccc1)C(=O)N1CCC[C@H]1C(N)=O.O [H-Tyr-D-Nle-Gly-Phe-Pro-NH2, L-Tyrosyl-D-norleucyl-glycyl-L-phenylalanyl-L-proline amide acetate hydrate] (H-Y[dNle]GFP-NH2) | 12 | 10 | 12
CCCC[C@@H](NC(=O)[C@H](Cc1ccc(O)cc1)NC(=N)N)C(=O)NCC(=O)N[C@@H](Cc1ccccc1)C(=O)N1CCC[C@H]1C(N)=O [H2 N-C-(NH)-Tyr-D-Nle-Gly-Phe-Pro-NH2, amidino-L-tyrosyl-D-norleucyl-glycyl-L-phenylalanyl-L-proline amide] ({Tyr(Nα-amidino)}-[dNle]GFP-NH2) | 79 | 17 | 21
